Reference: patent US20170298347A1, “NOVEL FUSION-CIRCULAR RNAs AND USES THEREOF” (BETH ISRAEL DEACONESS MEDICAL CENTER, priority 2016, published 2017)

Tested on: K562 cells
Assay: Apoptosis (AnnexinV/7-AAD) in K562 cells treated with Ara-C or ATO
Assay type: cell-based, human
Details: K562 transduced with empty vector; ATO 1 μM, Ara-C 0.5 μM
Description: K562 cells (Lozzio and Lozzio, 1979) were then transduced with viral vectors expressing f-circM9. Cells transduced only with an empty vector were used as control. F-circM9-expressing cells were sorted for a pure population and were subsequently subjected to treatment with Ara-C and ATO. […] On the contrary, clear differences were noticed in treated cells.
THP-1, K562, U937, HL-60, Kasumi and NB4 cell lines were maintained in RPMI medium supplemented with 10% FBS. MEFs Arf−/− cells were grown in DMEM supplemented with 10% FBS. Primary leukemic cells transduced with MLL/AF9 cDNA were maintained in StemSpan medium (Stem Cell Technologies) supplemented with IL6 (15 ng/ml), IL3 (15 ng/ml) TPO (50 ng/ml) and SCF (50 ng/ml) during the transduction with retroviral vectors. Cells were grown at 37° C. in a 5% CO2 humidified incubator. Fractionation of the cells to separate nucleus and cytoplasm has been performed using PARIS-kit (Ambion) following the manufacturer's instructions. The efficiency of the separation of the 2 fractions was assessed by Western blot analysis of β-actin (cytosol) and […] (nucleus). […]
Apoptotic cells were analyzed with 7AAD and Annexin-V-APC. Cells were stained for 15 minutes with both markers and then analyzed using LRSII (BD, Pharmingen).

## Nc1ccn([C@@H]2O[C@H](CO)[C@@H](O)[C@@H]2O)c(=O)n1 [Ara-C, cytarabine]
  apoptosis upon drug treatment: signs of apoptosis

## Arsenic trioxide [ATO]
  apoptosis upon drug treatment: signs of apoptosis
